Measured values as given in ChEMBL document CHEMBL5523679, “Discovery of 1,2,3-triazole incorporated indole-piperazines as potent antitubercular agents: Design, synthesis, in vitro biological evaluation, molecular docking and ADME studies” (Bioorg Med Chem, 2024).

What was measured:
Assay type in all cases: functional
[1] = test system: Escherichia coli; assay: Antibacterial activity against Escherichia coli assessed as inhibition zone at 25 ug/ml by diffusion method; conditions: read-out: IZ
[2] = test system: Escherichia coli; assay: Antibacterial activity against Escherichia coli assessed as inhibition zone at 75 ug/ml by diffusion method; conditions: read-out: IZ
[3] = test system: Mycobacterium tuberculosis; assay: Antimycobacterial activity against Mycobacterium tuberculosis H37Rv assessed as bacterial growth inhibition by microplate Alamar blue assay
[4] = test system: Pseudomonas aeruginosa; assay: Antibacterial activity against Pseudomonas aeruginosa assessed as inhibition zone at 75 ug/ml by diffusion method; conditions: read-out: IZ
[5] = test system: Staphylococcus aureus; assay: Antibacterial activity against Staphylococcus aureus assessed as inhibition zone at 75 ug/ml by diffusion method; conditions: read-out: IZ
[6] = test system: Staphylococcus aureus; assay: Antibacterial activity against Staphylococcus aureus assessed as inhibition zone at 25 ug/ml by diffusion method; conditions: read-out: IZ
[7] = test system: Pseudomonas aeruginosa; assay: Antibacterial activity against Pseudomonas aeruginosa assessed as inhibition zone at 50 ug/ml by diffusion method; conditions: read-out: IZ
[8] = test system: Staphylococcus aureus; assay: Antibacterial activity against Staphylococcus aureus assessed as inhibition zone at 50 ug/ml by diffusion method; conditions: read-out: IZ
[9] = test system: Escherichia coli; assay: Antibacterial activity against Escherichia coli assessed as inhibition zone at 50 ug/ml by diffusion method; conditions: read-out: IZ
[10] = test system: Pseudomonas aeruginosa; assay: Antibacterial activity against Pseudomonas aeruginosa assessed as inhibition zone at 25 ug/ml by diffusion method; conditions: read-out: IZ

Structure (SMILES) | zone of inhibition at 25 µg/mL [1] | zone of inhibition at 75 µg/mL [2] | MIC [3] | zone of inhibition at 75 µg/mL [4] | zone of inhibition at 75 µg/mL [5] | zone of inhibition at 25 µg/mL [6] | zone of inhibition at 50 µg/mL [7] | zone of inhibition at 50 µg/mL [8] | zone of inhibition at 50 µg/mL [9] | zone of inhibition at 25 µg/mL [10]
O=C(CCc1c[nH]c2ccccc12)N1CCN(S(=O)(=O)c2ccccc2)CC1 | 10 mm | 15 mm | > 120 µM | 15 mm | 20 mm | 12 mm | 10 mm | 15 mm | 12 mm | 
O=C(Cc1c[nH]c2ccccc12)N1CCN(S(=O)(=O)c2ccc(Cl)cc2)CC1 | 6 mm | 11 mm | 59.8 µM | 13 mm | 15 mm | 10 mm | 10 mm | 12 mm | 9 mm | 
O=C(Cc1c[nH]c2ccccc12)N1CCN(S(=O)(=O)c2ccc(F)cc2)CC1 |  | 18 mm | > 120 µM | 13 mm | 20 mm | 13 mm | 10 mm | 15 mm | 15 mm | 
O=C(CCc1c[nH]c2ccccc12)N1CCN(C(=O)c2ccc(F)cc2)CC1 |  | 18 mm | 65.9 µM | 13 mm | 20 mm | 13 mm | 10 mm | 15 mm | 15 mm | 
Cc1ccc(C(=O)N2CCN(C(=O)Cc3c[nH]c4ccccc34)CC2)cc1 |  | 18 mm | > 120 µM | 10 mm | 15 mm | 12 mm |  | 13 mm | 12 mm | 
O=C(CCc1cn(Cc2ccc(F)cc2)c2ccccc12)N1CCN(S(=O)(=O)c2ccc(F)cc2)CC1 |  | 18 mm | 23.8 µM | 12 mm | 23 mm | 15 mm | 10 mm | 18 mm | 14 mm | 
O=C(Cc1c[nH]c2ccccc12)N1CCN(C(=O)c2ccccc2)CC1 | 6 mm | 12 mm | > 120 µM | 13 mm | 15 mm | 10 mm | 9 mm | 12 mm | 9 mm | 
O=C(CCc1c[nH]c2ccccc12)N1CCN(C(=O)c2ccccc2)CC1 |  | 15 mm | > 120 µM | 12 mm | 15 mm |  | 10 mm | 13 mm | 13 mm | 
O=C(Cc1c[nH]c2ccccc12)N1CCN(C(=O)c2ccc(F)cc2)CC1 |  | 18 mm | 68.4 µM | 10 mm | 20 mm |  |  | 13 mm | 15 mm | 
Cc1ccc(S(=O)(=O)N2CCN(C(=O)CCc3cn(Cc4ccc(F)cc4)c4ccccc34)CC2)cc1 |  | 18 mm | 48.1 µM | 10 mm | 23 mm | 15 mm |  | 18 mm | 15 mm | 
O=C(CCc1cn(Cc2ccc(F)cc2)c2ccccc12)N1CCN(C(=O)c2ccccc2)CC1 |  | 15 mm | 53.2 µM | 13 mm | 23 mm | 15 mm | 10 mm | 18 mm | 13 mm | 
O=C(CCc1c[nH]c2ccccc12)N1CCN(S(=O)(=O)c2ccc(Cl)cc2)CC1 |  | 10 mm | 57.8 µM | 10 mm | 13 mm |  |  | 10 mm | 8 mm | 
O=C(Cc1cn(Cc2ccc(F)cc2)c2ccccc12)N1CCN(S(=O)(=O)c2ccc(Cl)cc2)CC1 |  | 18 mm | 23.8 µM | 13 mm | 22 mm | 15 mm |  | 18 mm | 15 mm | 
Cc1ccc(S(=O)(=O)N2CCN(C(=O)Cc3cn(Cc4ccc(F)cc4)c4ccccc34)CC2)cc1 |  | 18 mm | 49.4 µM | 13 mm | 22 mm | 13 mm |  | 18 mm | 15 mm | 
Cc1ccc(C(=O)N2CCN(C(=O)CCc3c[nH]c4ccccc34)CC2)cc1 |  | 15 mm | 66.6 µM | 15 mm | 15 mm | 10 mm | 10 mm | 13 mm | 13 mm | 
O=C(CCc1cn(Cc2ccc(F)cc2)c2ccccc12)N1CCN(S(=O)(=O)c2ccc(Cl)cc2)CC1 |  | 18 mm | 23.1 µM | 17 mm | 23 mm | 15 mm | 13 mm | 18 mm | 15 mm | 
O=C(Cc1cn(Cc2ccc(F)cc2)c2ccccc12)N1CCN(C(=O)c2ccc(Cl)cc2)CC1 |  | 15 mm | 25.5 µM | 13 mm | 23 mm | 13 mm | 10 mm | 18 mm | 13 mm | 
O=C(CCc1cn(Cc2cn(Cc3ccc(F)cc3)nn2)c2ccccc12)N1CCN(S(=O)(=O)c2ccccc2C(F)(F)F)CC1 | 15 mm | 20 mm | 38.2 µM | 12 mm | 20 mm | 10 mm | 10 mm | 12 mm | 22 mm | 
O=C(Cc1cn(Cc2ccc(F)cc2)c2ccccc12)N1CCN(C(=O)c2ccccc2)CC1 |  | 12 mm | > 120 µM | 12 mm | 23 mm | 13 mm | 10 mm | 17 mm | 10 mm | 
O=C(Cc1c[nH]c2ccccc12)N1CCN(C(=O)c2ccc(Cl)cc2)CC1 |  | 12 mm | 65.5 µM | 15 mm | 20 mm | 13 mm | 10 mm | 15 mm | 10 mm | 
COc1ccc(S(=O)(=O)N2CCN(C(=O)CCc3cn(Cc4cn(Cc5ccc(F)cc5)nn4)c4ccccc34)CC2)cc1 |  | 18 mm | 20.3 µM | 13 mm | 18 mm | 10 mm | 10 mm | 15 mm | 15 mm | 
O=C(CCc1cn(Cc2cn(Cc3ccc(F)cc3)nn2)c2ccccc12)N1CCN(S(=O)(=O)c2ccc([N+](=O)[O-])cc2)CC1 | 15 mm | 20 mm | 39.6 µM | 12 mm | 20 mm | 6 mm | 10 mm | 12 mm | 18 mm | 
O=C(Cc1cn(Cc2ccc(F)cc2)c2ccccc12)N1CCN(S(=O)(=O)c2ccc(F)cc2)CC1 |  | 18 mm | 24.5 µM | 18 mm | 20 mm | 15 mm |  | 18 mm | 13 mm | 
O=C(CCc1cn(Cc2cn(Cc3ccc(F)cc3)nn2)c2ccccc12)N1CCN(C(=O)c2ccccc2)CC1 |  | 18 mm | 22.7 µM | 12 mm | 20 mm | 13 mm | 10 mm | 10 mm | 15 mm | 
O=C(CCc1c[nH]c2ccccc12)N1CCN(C(=O)c2ccc(Cl)cc2)CC1 |  | 12 mm | 63.1 µM | 12 mm | 20 mm | 10 mm | 10 mm | 15 mm | 10 mm | 
O=C(CCc1cn(Cc2cn(Cc3ccc(F)cc3)nn2)c2ccccc12)N1CCN(C(=O)c2ccc([N+](=O)[O-])cc2)CC1 | 15 mm | 20 mm | 21 µM | 13 mm | 20 mm | 10 mm |  | 13 mm | 19 mm | 
O=C(O)c1cn(C2CC2)c2cc(N3CCNCC3)c(F)cc2c1=O [CIPROFLOXACIN] |  | 32 mm |  | 21 mm | 26 mm | 18 mm | 18 mm | 21 mm | 27 mm | 15 mm
NNC(=O)c1ccncc1 [ISONIAZID] |  |  | 11.7 µM |  |  |  |  |  |  | 
NC(=O)c1cnccn1 [PYRAZINAMIDE] |  |  | 25.3 µM |  |  |  |  |  |  | 
